One assay deals with TIP60-KAT5 (Homo sapiens (Human), UniProt Q92993). The assay can be described thus: Acetyltransferase biochemical assay (AlphaScreen), KAT5. Particulars: 1 μM AcCoA, histone H4. A general note: Bead proximity is the source of the signal in Alpha formats.
In the next assay the target is MOF-KAT8 (Homo sapiens (Human), UniProt Q9H7Z6). The format is biochemical. The following applies: 1 μM AcCoA, histone H4.
The next assay addresses MOZ-KAT6A (Homo sapiens (Human), UniProt Q92794). The assay can be described thus: Acetyltransferase biochemical assay (AlphaScreen), KAT6A. Particulars: 1 μM AcCoA, histone H3.1.

Some results are limits rather than exact numbers.

MOF-KAT8, sequence (Q9H7Z6 177-447): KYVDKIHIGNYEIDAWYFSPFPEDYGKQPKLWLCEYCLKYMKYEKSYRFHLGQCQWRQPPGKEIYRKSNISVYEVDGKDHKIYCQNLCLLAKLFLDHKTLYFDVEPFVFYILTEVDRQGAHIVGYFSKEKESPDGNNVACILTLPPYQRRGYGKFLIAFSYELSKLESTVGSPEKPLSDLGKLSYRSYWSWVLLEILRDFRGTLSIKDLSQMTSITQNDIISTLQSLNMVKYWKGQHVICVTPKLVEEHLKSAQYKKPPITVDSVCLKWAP
TIP60-KAT5, sequence (Q92993 other isoform, or with tags, fused parts or gaps): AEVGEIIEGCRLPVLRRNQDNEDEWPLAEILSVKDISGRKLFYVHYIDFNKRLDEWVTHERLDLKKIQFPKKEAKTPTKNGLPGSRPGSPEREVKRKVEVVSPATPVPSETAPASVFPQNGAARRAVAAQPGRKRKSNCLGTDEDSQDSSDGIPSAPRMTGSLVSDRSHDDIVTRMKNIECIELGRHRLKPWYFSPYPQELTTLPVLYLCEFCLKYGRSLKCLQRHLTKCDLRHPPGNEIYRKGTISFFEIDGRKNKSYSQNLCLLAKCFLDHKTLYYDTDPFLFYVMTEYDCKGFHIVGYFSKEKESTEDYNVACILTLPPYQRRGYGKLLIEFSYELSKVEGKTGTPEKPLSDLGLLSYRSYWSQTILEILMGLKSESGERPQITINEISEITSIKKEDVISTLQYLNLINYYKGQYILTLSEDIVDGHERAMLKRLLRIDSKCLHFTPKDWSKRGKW
MOZ-KAT6A, sequence (Q92794 other isoform, or with tags, fused parts or gaps): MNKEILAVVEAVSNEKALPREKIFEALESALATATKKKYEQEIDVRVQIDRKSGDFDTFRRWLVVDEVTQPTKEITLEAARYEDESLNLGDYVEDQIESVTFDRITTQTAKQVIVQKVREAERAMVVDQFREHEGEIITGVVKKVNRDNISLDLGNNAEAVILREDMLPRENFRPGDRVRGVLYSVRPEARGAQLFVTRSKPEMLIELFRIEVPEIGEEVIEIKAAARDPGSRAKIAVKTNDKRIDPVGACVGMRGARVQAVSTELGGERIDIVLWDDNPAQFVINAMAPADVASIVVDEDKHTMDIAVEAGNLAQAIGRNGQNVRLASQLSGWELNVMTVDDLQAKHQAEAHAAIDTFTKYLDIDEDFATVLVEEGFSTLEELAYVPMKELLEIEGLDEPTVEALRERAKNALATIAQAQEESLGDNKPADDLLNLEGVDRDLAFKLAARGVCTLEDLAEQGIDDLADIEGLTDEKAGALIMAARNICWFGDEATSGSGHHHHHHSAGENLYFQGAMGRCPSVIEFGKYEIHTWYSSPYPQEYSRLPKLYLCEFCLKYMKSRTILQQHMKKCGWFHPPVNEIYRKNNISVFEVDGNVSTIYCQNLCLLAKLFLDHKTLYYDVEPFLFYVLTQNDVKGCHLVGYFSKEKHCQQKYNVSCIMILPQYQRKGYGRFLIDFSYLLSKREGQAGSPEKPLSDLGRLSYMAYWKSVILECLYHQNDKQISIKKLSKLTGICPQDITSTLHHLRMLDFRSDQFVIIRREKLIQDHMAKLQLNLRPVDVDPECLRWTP

For `N#Cc1ccc(S(=O)(=O)Nc2cc(-c3ccccc3)on2)cc1` [Example 45, 4-cyano-N-(5-phenylisoxazol-3-yl)benzenesulfonamide], the half-maximal inhibitory concentration (IC50) on TIP60-KAT5 and against MOF-KAT8 was greater than 125 µM throughout. For `COc1ccccc1-c1cc(N(C)S(=O)(=O)c2c(OC)cc(-c3ccccc3)cc2OC)no1` [Example 55, 2,6-Dimethoxy-N-[5-(2-methoxyphenyl)isoxazol-3-yl]-N-methyl-4-phenyl-benzenesulfonamide], the IC50 against TIP60-KAT5 and against MOF-KAT8 was greater than 125 µM each time. As to `O=S(=O)(Nc1cc(-c2ccccc2)on1)c1ccccc1` [Example 63, N-(5-phenylisoxazol-3-yl)benzenesulfonamide], the IC50 – broadly, the midpoint of a concentration-inhibition curve – at MOF-KAT8 was greater than 125 µM. In the case of `COc1cccc(OC)c1S(=O)(=O)Nc1nnc(-c2ccccc2Cn2cccn2)s1` [Example 101, N-(5-(2-((1H-Pyrazol-1-yl)methyl)phenyl)-1,3,4-thiadiazol-2-yl)-2,6-dimethoxybenzenesulfonamide], the half-inhibitory concentration (IC50) against TIP60-KAT5 and against MOZ-KAT6A was greater than 125 µM in each case. Turning to `COc1ccccc1-c1nnc(NS(=O)(=O)C2CCOCC2)s1` [Example 127, N-(5-(2-methoxyphenyl)-1,3,4-thiadiazol-2-yl)tetrahydro-2H-pyran-4-sulfonamide], the IC50 at TIP60-KAT5 and at MOZ-KAT6A was greater than 125 µM each time.

The values above are taken from patent US20240277683A1, “COMPOUNDS” (CTXT PTY LTD, priority 2018, published 2024).
